Where two headings read alike, the source gives them in different places.
Key:
Cucumber fusarium wilt = assay: In vitro fungicidal activity, PDA colony diameter; assay type: cell-based; conditions: 96 h, read-out: Fungicidal activity (%) Cucumber fusarium wilt
[1] = test system: Cercospora brown spot of peanut; assay: In vitro fungicidal activity, PDA colony diameter; assay type: cell-based; conditions: 96 h, read-out: Fungicidal activity (%) Cercospora brown spot of peanut
Tomato early blight = assay: In vitro fungicidal activity, PDA colony diameter; assay type: cell-based, Alternaria solani; conditions: read-out: Fungicidal activity (%) Tomato early blight
Wheat head blight = assay: whole plant or invertebrate; assay type: cell-based; conditions: Triticum aestivum, read-out: Fungicidal activity (%) Wheat head blight
Rice bakanae disease = assay: In vitro fungicidal activity, PDA colony diameter; assay type: cell-based; conditions: read-out: Fungicidal activity (%) Rice bakanae disease
Sclerotinia rot of colza = assay: In vitro fungicidal activity, PDA colony diameter; assay type: cell-based; conditions: 96 h, read-out: Fungicidal activity (%) Sclerotinia rot of colza
Apple ring rot = assay: In vitro fungicidal activity, PDA colony diameter; assay type: cell-based; conditions: inhibition of colony diameter
Description: (§1) Here, the test is described in an example of Alternaria solani; it can be replaced by other fungi.
(§2) In vitro testing method: Alternaria solani is inoculated to a PDA culture medium and cultured for 7 days, a fungus dish with a diameter of […] is prepared on the periphery of the colony with a punch and inoculated to a PDA culture medium that contains pesticide at a concentration of 50 mg/kg and a PDA culture medium that doesn't contain the pesticide, and are cultured for 4 days respectively; then, the colony diameters are measured, and the inhibition percentages of the pesticides are calculated by comparing with the control sample.

[2] = test system: Capsicum phytophthora blight; assay: In vitro fungicidal activity, PDA colony diameter; assay type: cell-based; conditions: 96 h
Description: as §1, §2

Wheat sheath blight = assay: In vitro fungicidal activity, PDA colony diameter; assay type: cell-based; conditions: read-out: Fungicidal activity (%) Wheat sheath blight
[3] = test system: Corn southern leaf blight; assay: In vitro fungicidal activity, PDA colony diameter; assay type: cell-based; conditions: read-out: Fungicidal activity (%) Corn southern leaf blight
Watermelon anthracnose = assay: In vitro fungicidal activity, PDA colony diameter; assay type: cell-based; conditions: read-out: Fungicidal activity (%) Watermelon anthracnose
Potato late blight = assay: microbe, parasite or virus in culture; assay type: cell-based; conditions: Phytophthora infestans, 96 h, read-out: Fungicidal activity (%) Potato late blight
Rice sheath blight = assay: In vitro fungicidal activity, PDA colony diameter; assay type: cell-based; conditions: read-out: Fungicidal activity (%) Rice sheath blight
Armyworms = assay: Test of insecticidal activity against armyworms (leaf immersion); conditions: 600 mg/kg, 3-4 days
Maize borers = assay: Test of insecticidal activity against maize borers (leaf immersion); conditions: read-out: Mortalities (%) Maize borers
[4] = test system: mosquito larvae (Culer pipiens pallens); assay: Test of insecticidal activity against mosquito larvae (checked after 24 h); conditions: 24 h, read-out: Mortalities (%) against mosquito larvae
[5] = test system: bean aphides (Aphis laburni Kaltenbach); assay: Test of insecticidal activity against aphides (leaf immersion, checked after 96 h); conditions: for mortality at 10 mg/kg / mortality at 100 mg/kg / mortality at 600 mg/kg / mortality at 2.5 mg/kg / mortality at 5 mg/kg: Aphis, read-out: Mortalities (%) against aphides
Cotton bollworms = assay: Test of insecticidal activity against cotton bollworms (pesticide mixed into feedstuff); conditions: read-out: Mortalities (%) Cotton bollworms
Description: Method of testing against cotton bollworms: the pesticide is mixed into the feedstuff, i.e., 3 mL prepared solution is added into about 27 g freshly prepared feedstuff; thus, required concentration is obtained by diluting by 10 times.

[6] = 50 mg/kg, inhibition of colony diameter

## CC1=NNC(=O)N(N(S(=O)(=O)c2ccc([N+](=O)[O-])cc2)S(=O)(=O)c2ccc([N+](=O)[O-])cc2)C1 [Ib-7, N-(6-methyl-3-oxo-2,3-dihydro-1,2,4-triazin-4(5H)-yl)-4-nitro-N-(4-nitrobenzenesulfonyl)-benzenesulfonamide]
Cucumber fusarium wilt
  inhibition of growth at 50 mg/kg: 5%
[1]
  inhibition of growth at 50 mg/kg: 21.1%
Tomato early blight
  inhibition at 50 mg/kg: 23.8%
Wheat head blight
  inhibition at 50 mg/kg: 23.3%
Rice bakanae disease
  inhibition at 50 mg/kg: 44.4%
Sclerotinia rot of colza
  inhibition of growth at 50 mg/kg: 30%
Apple ring rot
  inhibition at 50 mg/kg: 0%
[2]
  inhibition of growth at 50 mg/kg: 36.7%
Wheat sheath blight
  inhibition at 50 mg/kg: 59.1%
[3]
  inhibition at 50 mg/kg: 12.5%
Watermelon anthracnose
  inhibition at 50 mg/kg: 20.8%
Potato late blight
  inhibition of growth at 50 mg/kg: 25.9%
Rice sheath blight
  inhibition at 50 mg/kg: 27%
Armyworms
  Mortalities (%) Armyworms: 20%
Maize borers
  mortality at 600 mg/kg: 15%
[4]
  mortality at 10 mg/kg: 60%
[5]; 96 h
  mortality at 10 mg/kg: 25%
  mortality at 100 mg/kg: 85%
  mortality at 600 mg/kg: 100%
Cotton bollworms
  mortality at 600 mg/kg: 40%

## CC(=O)Nc1ccc(S(=O)(=O)N(N2CC(C)=NNC2=O)S(=O)(=O)c2ccc(NC(C)=O)cc2)cc1 [Ib-8, 4-acetamido-N-(6-methyl-3-oxo-2,3-dihydro-1,2,4-triazin-4(5H)-yl)-N-(4-acetamidobenzenesulfonyl)-benzenesulfonamide]
Cucumber fusarium wilt; [6]
  inhibition of growth at 50 mg/kg: 0%
[1]; [6]
  inhibition of growth at 50 mg/kg: 15.8%
Tomato early blight; [6]
  inhibition at 50 mg/kg: 23.8%
Wheat head blight
  inhibition at 50 mg/kg: 0%
Rice bakanae disease; [6]
  inhibition at 50 mg/kg: 22.2%
Sclerotinia rot of colza; [6]
  inhibition of growth at 50 mg/kg: 33.3%
Apple ring rot
  inhibition at 50 mg/kg: 27.6%
[2]
  inhibition of growth at 50 mg/kg: 20.4%
Wheat sheath blight; [6]
  inhibition at 50 mg/kg: 45.5%
[3]; [6]
  inhibition at 50 mg/kg: 16.7%
Watermelon anthracnose; [6]
  inhibition at 50 mg/kg: 12.5%
Potato late blight
  inhibition of growth at 50 mg/kg: 29.6%
Rice sheath blight; [6]
  inhibition at 50 mg/kg: 27%
Armyworms
  Mortalities (%) Armyworms: 20%
Maize borers
  mortality at 600 mg/kg: 15%
[4]
  mortality at 10 mg/kg: 30%
[5]; 96 h
  mortality at 100 mg/kg: 50%
  mortality at 600 mg/kg: 90%
Cotton bollworms
  mortality at 600 mg/kg: 15%

## CC1=NNC(=O)N(/N=C/c2cccnc2)C1 [Pymetrozine, reference compound]
Cucumber fusarium wilt; [6]
  inhibition of growth at 50 mg/kg: 5%
[1]; [6]
  inhibition of growth at 50 mg/kg: 15.8%
Tomato early blight; [6]
  inhibition at 50 mg/kg: 23.8%
Wheat head blight
  inhibition at 50 mg/kg: 13.3%
Rice bakanae disease; [6]
  inhibition at 50 mg/kg: 33.3%
Sclerotinia rot of colza; [6]
  inhibition of growth at 50 mg/kg: 31.7%
Apple ring rot
  inhibition at 50 mg/kg: 27.6%
[2]
  inhibition of growth at 50 mg/kg: 36.7%
Wheat sheath blight; [6]
  inhibition at 50 mg/kg: 63.6%
[3]; [6]
  inhibition at 50 mg/kg: 16.7%
Watermelon anthracnose; [6]
  inhibition at 50 mg/kg: 16.7%
Potato late blight
  inhibition of growth at 50 mg/kg: 22.2%
Rice sheath blight; [6]
  inhibition at 50 mg/kg: 19%
Armyworms
  Mortalities (%) Armyworms: 50%
Maize borers
  mortality at 600 mg/kg: 35%
[4]
  mortality at 5 mg/kg: 40%
  mortality at 10 mg/kg: 100%
[5]; 2.5 mg/kg, 96 h
  Mortalities (%) against aphides: no insecticidal activity
[5]; 96 h
  mortality at 2.5 mg/kg: 0%
  mortality at 5 mg/kg: 30%
  mortality at 10 mg/kg: 90%
  mortality at 100 mg/kg: 100%
  mortality at 600 mg/kg: 100%
Cotton bollworms
  mortality at 600 mg/kg: 20%

## CCCS(=O)(=O)NN1CC(C)=NNC1=O [Ia-3, N-(6-methyl-3-oxo-2,3-dihydro-1,2,4-triazin-4(5H)-yl)-n-propylsulfonamide]
Cucumber fusarium wilt; [6]
  inhibition of growth at 50 mg/kg: 0%
[1]; [6]
  inhibition of growth at 50 mg/kg: 26.3%
Tomato early blight; [6]
  inhibition at 50 mg/kg: 0%
Wheat head blight
  inhibition at 50 mg/kg: 3.3%
Rice bakanae disease; [6]
  inhibition at 50 mg/kg: 16.7%
Sclerotinia rot of colza; [6]
  inhibition of growth at 50 mg/kg: 35%
Apple ring rot
  inhibition at 50 mg/kg: 0%
[2]
  inhibition of growth at 50 mg/kg: 24.5%
Wheat sheath blight; [6]
  inhibition at 50 mg/kg: 47.7%
[3]; [6]
  inhibition at 50 mg/kg: 16.7%
Watermelon anthracnose; [6]
  inhibition at 50 mg/kg: 12.5%
Potato late blight
  inhibition of growth at 50 mg/kg: 22.2%
Rice sheath blight; [6]
  inhibition at 50 mg/kg: 14.3%
Armyworms
  Mortalities (%) Armyworms: 25%
Maize borers
  mortality at 600 mg/kg: 20%
[4]
  mortality at 10 mg/kg: 55%
[5]; 96 h
  mortality at 10 mg/kg: 40%
  mortality at 100 mg/kg: 75%
  mortality at 600 mg/kg: 95%
Cotton bollworms
  mortality at 600 mg/kg: 10%

## CC1=NNC(=O)N(NS(=O)(=O)c2cccc(C)c2)C1 [Ia-11, 3-methyl-N-(6-methyl-3-oxo-2,3-dihydro-1,2,4-triazin-4(5H)-yl)-benzenesulfonamide]
Cucumber fusarium wilt; [6]
  inhibition of growth at 50 mg/kg: 8.8%
[1]; [6]
  inhibition of growth at 50 mg/kg: 8%
Tomato early blight; [6]
  inhibition at 50 mg/kg: 1.5%
Wheat head blight
  inhibition at 50 mg/kg: 2.7%
Rice bakanae disease; [6]
  inhibition at 50 mg/kg: 10.3%
Sclerotinia rot of colza; [6]
  inhibition of growth at 50 mg/kg: 26.3%
Apple ring rot
  inhibition at 50 mg/kg: 6.8%
[2]
  inhibition of growth at 50 mg/kg: 27.8%
Wheat sheath blight; [6]
  inhibition at 50 mg/kg: 14.3%
[3]; [6]
  inhibition at 50 mg/kg: 18.7%
Watermelon anthracnose; [6]
  inhibition at 50 mg/kg: 36.1%
Potato late blight
  inhibition of growth at 50 mg/kg: 9.3%
Rice sheath blight; [6]
  inhibition at 50 mg/kg: 16.3%
Armyworms
  Mortalities (%) Armyworms: 20%
Maize borers
  mortality at 600 mg/kg: 15%
[4]
  mortality at 2 mg/kg: 20%
  mortality at 5 mg/kg: 100%
  mortality at 10 mg/kg: 100%
[5]; 96 h
  mortality at 2.5 mg/kg: 15%
  mortality at 5 mg/kg: 80%
  mortality at 10 mg/kg: 100%
  mortality at 100 mg/kg: 100%
  mortality at 600 mg/kg: 100%
Cotton bollworms
  mortality at 600 mg/kg: 20%

## CC1=NNC(=O)N(NS(=O)(=O)c2ccccc2C)C1 [Ia-10, 2-methyl-N-(6-methyl-3-oxo-2,3-dihydro-1,2,4-triazin-4(5H)-yl)-benzenesulfonamide]
Cucumber fusarium wilt; [6]
  inhibition of growth at 50 mg/kg: 5.9%
[1]; [6]
  inhibition of growth at 50 mg/kg: 4%
Tomato early blight; [6]
  inhibition at 50 mg/kg: 9%
Wheat head blight
  inhibition at 50 mg/kg: 13.5%
Rice bakanae disease; [6]
  inhibition at 50 mg/kg: 13.8%
Sclerotinia rot of colza; [6]
  inhibition of growth at 50 mg/kg: 21%
Apple ring rot
  inhibition at 50 mg/kg: 10.8%
[2]
  inhibition of growth at 50 mg/kg: 9.4%
Wheat sheath blight; [6]
  inhibition at 50 mg/kg: 14.3%
[3]; [6]
  inhibition at 50 mg/kg: 37.5%
Watermelon anthracnose; [6]
  inhibition at 50 mg/kg: 39.2%
Potato late blight
  inhibition of growth at 50 mg/kg: 18.7%
Rice sheath blight; [6]
  inhibition at 50 mg/kg: 17.4%
Armyworms
  Mortalities (%) Armyworms: 40%
Maize borers
  mortality at 600 mg/kg: 40%
[4]
  mortality at 2 mg/kg: 40%
  mortality at 5 mg/kg: 100%
  mortality at 10 mg/kg: 100%
[5]; 96 h
  mortality at 2.5 mg/kg: 25%
  mortality at 5 mg/kg: 90%
  mortality at 10 mg/kg: 100%
  mortality at 100 mg/kg: 100%
  mortality at 600 mg/kg: 100%
Cotton bollworms
  mortality at 600 mg/kg: 50%

## CC1=NNC(=O)N(NS(=O)(=O)c2ccc(Cl)cc2)C1 [Ia-21, 4-chloro-N-(6-methyl-3-oxo-2,3-dihydro-1,2,4-triazin-4(5H)-yl)-benzenesulfonamide]
Cucumber fusarium wilt; [6]
  inhibition of growth at 50 mg/kg: 5.9%
[1]; [6]
  inhibition of growth at 50 mg/kg: 12%
Tomato early blight; [6]
  inhibition at 50 mg/kg: 6%
Wheat head blight
  inhibition at 50 mg/kg: 16.2%
Rice bakanae disease; [6]
  inhibition at 50 mg/kg: 24.1%
Sclerotinia rot of colza; [6]
  inhibition of growth at 50 mg/kg: 26.3%
Apple ring rot
  inhibition at 50 mg/kg: 8.1%
[2]
  inhibition of growth at 50 mg/kg: 25%
Wheat sheath blight; [6]
  inhibition at 50 mg/kg: 14.3%
[3]; [6]
  inhibition at 50 mg/kg: 15.6%
Watermelon anthracnose; [6]
  inhibition at 50 mg/kg: 24.6%
Potato late blight
  inhibition of growth at 50 mg/kg: 18.7%
Rice sheath blight; [6]
  inhibition at 50 mg/kg: 11.6%
Armyworms
  Mortalities (%) Armyworms: 75%
Maize borers
  mortality at 600 mg/kg: 60%
[4]
  mortality at 2 mg/kg: 40%
  mortality at 5 mg/kg: 100%
  mortality at 10 mg/kg: 100%
[5]; 5 mg/kg
  insecticidal activity against aphides compared with pymetrozine: equivalent to the insecticidal activity of pymetrozine
[5]; 96 h
  mortality at 5 mg/kg: 35%
  mortality at 10 mg/kg: 85%
  mortality at 100 mg/kg: 100%
  mortality at 600 mg/kg: 100%
Cotton bollworms
  mortality at 600 mg/kg: 50%
